Results taken from publication PMC6327263, “Evaluation of Novel 3-Hydroxyflavone Analogues as HDAC Inhibitors against Colorectal Cancer” (Advances in Pharmacological Sciences, 2018).
Where two headings read alike, the source gives them in different places.

Experiments:
[1] = target: T1, recombinant human HDAC6 enzyme (Homo sapiens, UniProt Q9UBN7); test: HDAC6 enzyme inhibition assay; type: biochemical; settings: mean ± SEM of three experiments
T1 construct: purchased Enzo Life Sciences, Inc. USA
T1 sequence (Q9UBN7 1-1215): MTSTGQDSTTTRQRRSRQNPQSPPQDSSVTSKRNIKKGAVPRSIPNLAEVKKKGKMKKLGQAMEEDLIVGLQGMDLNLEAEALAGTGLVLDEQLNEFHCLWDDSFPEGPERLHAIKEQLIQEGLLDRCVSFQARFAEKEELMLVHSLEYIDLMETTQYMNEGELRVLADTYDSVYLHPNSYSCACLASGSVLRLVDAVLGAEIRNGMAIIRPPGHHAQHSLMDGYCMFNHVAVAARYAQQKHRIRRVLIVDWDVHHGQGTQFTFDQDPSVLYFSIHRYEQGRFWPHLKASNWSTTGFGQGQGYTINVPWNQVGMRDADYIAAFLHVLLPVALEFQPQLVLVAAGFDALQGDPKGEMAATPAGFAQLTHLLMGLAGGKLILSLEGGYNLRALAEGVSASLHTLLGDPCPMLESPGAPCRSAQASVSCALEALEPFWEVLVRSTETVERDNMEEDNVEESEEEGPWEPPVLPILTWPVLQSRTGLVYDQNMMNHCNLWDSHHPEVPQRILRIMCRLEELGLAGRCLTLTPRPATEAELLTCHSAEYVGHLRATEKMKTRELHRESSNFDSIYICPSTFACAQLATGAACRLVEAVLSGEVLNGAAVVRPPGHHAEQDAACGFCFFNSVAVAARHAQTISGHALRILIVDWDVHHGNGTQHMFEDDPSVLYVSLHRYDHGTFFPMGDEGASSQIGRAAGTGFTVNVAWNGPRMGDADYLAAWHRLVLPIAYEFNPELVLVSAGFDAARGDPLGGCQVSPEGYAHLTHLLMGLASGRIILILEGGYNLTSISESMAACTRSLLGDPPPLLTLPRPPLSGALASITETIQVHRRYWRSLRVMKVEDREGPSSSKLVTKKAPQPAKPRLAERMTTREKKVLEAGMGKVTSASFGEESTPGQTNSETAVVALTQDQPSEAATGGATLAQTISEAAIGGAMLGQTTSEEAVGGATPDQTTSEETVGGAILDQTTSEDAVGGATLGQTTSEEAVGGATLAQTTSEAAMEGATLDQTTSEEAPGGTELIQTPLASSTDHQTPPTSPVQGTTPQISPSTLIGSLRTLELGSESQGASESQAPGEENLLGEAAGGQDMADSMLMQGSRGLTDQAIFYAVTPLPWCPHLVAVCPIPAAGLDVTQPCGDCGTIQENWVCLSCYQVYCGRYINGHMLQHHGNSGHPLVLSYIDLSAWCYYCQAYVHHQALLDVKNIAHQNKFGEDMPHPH
Procedure: (§1) The HDAC1 and 6 assays were carried out with few modifications from the previously described method. In brief, 10 µl of different concentration of test compounds was added to 40 µl of reaction mixture containing HDAC assay buffer, HDAC substrate, and recombinant human HDAC1 and 6 enzymes. The reactions were incubated for 30 min at 37°C. Then, 50 µl of trypsin stop solution was added in each well, and the plate was incubated at room temperature for an additional 20 min. Fluorescence intensity was measured at an excitation of 360 nm and an emission of 460 nm using a fluorescence microplate reader (FLx800, BioTek Instruments Inc. Winooski, VT, USA).

[2] = target: T2, recombinant human HDAC1 enzyme (Homo sapiens, UniProt Q13547); test: HDAC1 enzyme inhibition assay; type: biochemical
T2 construct: purchased Enzo Life Sciences, Inc. USA
T2 sequence (Q13547 whole entry): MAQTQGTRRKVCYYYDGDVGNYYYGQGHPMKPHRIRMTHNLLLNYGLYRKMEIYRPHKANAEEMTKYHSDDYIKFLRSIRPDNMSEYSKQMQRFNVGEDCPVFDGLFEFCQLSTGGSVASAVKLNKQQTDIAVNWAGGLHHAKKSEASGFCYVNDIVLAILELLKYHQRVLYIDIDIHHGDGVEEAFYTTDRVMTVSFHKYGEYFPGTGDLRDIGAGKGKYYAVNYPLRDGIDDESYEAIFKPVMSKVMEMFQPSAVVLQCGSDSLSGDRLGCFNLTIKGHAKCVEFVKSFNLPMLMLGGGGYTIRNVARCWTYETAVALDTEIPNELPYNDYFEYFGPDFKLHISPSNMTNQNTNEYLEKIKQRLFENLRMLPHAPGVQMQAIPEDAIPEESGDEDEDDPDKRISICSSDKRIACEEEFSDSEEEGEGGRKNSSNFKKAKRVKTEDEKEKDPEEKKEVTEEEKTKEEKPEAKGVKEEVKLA
Procedure: as §1

[3] = test system: HCT116 cells; test: MTT cytotoxicity assay, HCT116; type: cell-based, human; settings: for IC50: Homo sapiens, HCT-116, 48 h, mean ± SEM of three experiments; for cytotoxicity in HCT116 relative to inhibitory concentration in normal (Vero) cell line: HCT116 vs Vero
Procedure: (§2) Human colorectal carcinoma cell line (HCT116) and African green monkey kidney epithelial cells (VERO) were obtained from National Centre for Cell Science, Pune, MH, India. For their maintenance, the cells were grown in Dulbecco's Modified Eagle's Medium (DMEM) which was supplemented with 10% fetal bovine serum (FBS) and 1 × penicillin/streptomycin at 37°C in CO2 incubator (NU-5501E/G, NuAire Inc., Plymouth, MN, USA) in a humidified atmosphere of 5% CO2 and 95% air.
(§3) Cytotoxicity for the synthesized analogues was determined using MTT assay. In brief, HCT116 and VERO cells were harvested from the tissue culture flask and seeded in sterile 96 well plates at a density of 5000 cells per well. After overnight adherence, different concentrations of test compounds were added and incubated for 48 h. Next, 50 µl of the MTT reagent (HiMedia Laboratories, Mumbai, India) (2 mg/ml in the sterile phosphate buffer saline (PBS)) was added into each well and incubated for 3 h. The formazan crystals formed were solubilized using 100% dimethyl sulfoxide (DMSO), and the optical density was measured at 540 nm using the microplate reader (ELx800, BioTek Instruments Inc., Winooski, VT, USA).

[4] = test system: VERO cells; test: MTT cytotoxicity assay, Vero; type: cell-based, African green monkey; settings: Chlorocebus sabaeus, 48 h, mean ± SEM of three experiments
Procedure: as §2, §3

[5] = target: T3, recombinant human HDAC8 enzyme (Homo sapiens, UniProt Q9BY41); test: HDAC8 enzyme inhibition assay; type: biochemical; settings: mean ± SEM of three experiments
T3 construct: purchased Enzo Life Science, NY, USA BML-AK518
T3 sequence (Q9BY41 1-377): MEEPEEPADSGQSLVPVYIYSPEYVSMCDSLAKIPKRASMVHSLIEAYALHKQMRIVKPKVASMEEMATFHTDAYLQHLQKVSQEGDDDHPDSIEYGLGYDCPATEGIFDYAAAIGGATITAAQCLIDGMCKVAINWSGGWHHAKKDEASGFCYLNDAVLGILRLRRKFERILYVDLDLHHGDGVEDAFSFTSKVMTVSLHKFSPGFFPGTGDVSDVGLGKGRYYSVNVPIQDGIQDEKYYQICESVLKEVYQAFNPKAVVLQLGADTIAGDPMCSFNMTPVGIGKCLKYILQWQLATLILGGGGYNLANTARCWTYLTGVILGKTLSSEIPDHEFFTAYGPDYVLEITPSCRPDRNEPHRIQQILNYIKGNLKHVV
Procedure: The enzymatic reaction was conducted as per Enzo Life Science, NY, USA (BML-AK518) kit protocol. In brief, 10 µl of different concentration of test compounds were added to a 40 µl reaction mixture containing the HDAC assay buffer, HDAC8 substrate, and recombinant human HDAC8 enzyme. The reactions were incubated for 20 min at 30°C. Then, 50 µl of the HDAC developer was added in each well, and the plate was incubated at room temperature for an additional 45 min. Fluorescence intensity was measured at an excitation of 360 nm and an emission of 460 nm using a fluorescence microplate reader (FLx800, BioTek Instruments Inc., Winooski, VT, USA).

[6] = mean ± SEM of three experiments, read-out: HDAC1 IC50

Row | Compound | IC50 [1] [µM] | IC50 ([2]; HDAC1 IC50, mean ± SEM of three experiments) [µM] | IC50 [3] [µM] | IC50 [4] [µM] | IC50 [5] [µM] | IC50 [2, 6] [µM] | cytotoxicity in HCT116 relative to inhibitory concentration in normal (Vero) cell line [3]
1 | O=c1c(O)c(-c2ccc(O)c(O)c2)oc2cc(O)cc(O)c12 [Quercetin, quercetin, reference compound] | 43.4 ± 2.17 | 26.7 ± 3.77 | 108 ± 1.2 | 202 ± 7.5 | 15.4 ± 1.53 |  | 
2 | Cc1ccc(-c2oc3ccccc3c(=O)c2O)cc1 [QMJ-2, 3-Hydroxy-2-(4-methylphenyl)-4H-1-benzopyran-4-one] | 165 ± 11.1 |  | 68 ± 2.3 | 140 ± 6.8 | 36 ± 4.17 | 34.1 ± 3.83 | two-fold lower concentration
3 | Cc1ccc(-c2oc3cc(C)ccc3c(=O)c2O)cc1 [QMJ-5, 3-Hydroxy-7-methyl-2-(4-methylphenyl)-4H-1-benzopyran-4-one] | 163 ± 7.05 |  | 27.4 ± 1.8 | 55.6 ± 3.8 | 24 ± 2.8 | 47.7 ± 6.3 | two-fold lower concentration
